Source: patent US7214824B2, “Substituted N-sulfonylaminobenzyl-2-phenoxyacetamide compounds as VR1 receptor agonists” (Pfizer Inc., priority 2004, dated 2007)

melting point [°C] | Compound
163.1 | CC(C)(C)c1ccc(OCC(=O)NCc2ccc(NS(C)(=O)=O)cc2)cc1 [Example 9, 2-(4-tert-Butylphenoxy)-N-{4-[(methylsulfonyl)amino]benzyl}acetamide]
112.3 | CC(C)(C)c1ccc(OCC(=O)NCc2ccc(NS(C)(=O)=O)c(O)c2)cc1 [Example 12, 2-(4-tert-Butylphenoxy) -N-{3-hydroxy-4-[(methylsulfonyl)amino]benzyl}acetamide]
